Our source for the IC50 values is patent US11629135B2 (JUBILANT PRODEL LLC, priority 2017, dated 2023).

Broadly, the IC50 is the concentration that gives 50% inhibition. Low values mean higher potency, high ones lower potency.

T1 sequence (Q9NZQ7 19-238 limits assumed): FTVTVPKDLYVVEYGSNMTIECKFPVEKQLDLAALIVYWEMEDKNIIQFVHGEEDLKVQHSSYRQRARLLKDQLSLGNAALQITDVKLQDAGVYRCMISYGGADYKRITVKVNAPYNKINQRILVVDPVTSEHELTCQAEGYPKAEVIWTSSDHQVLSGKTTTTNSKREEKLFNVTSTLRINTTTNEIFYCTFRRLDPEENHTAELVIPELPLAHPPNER

The test has as its target T1, PD-1/PD-L1 interaction (Homo sapiens, UniProt Q9NZQ7).
T1 construct: Tag1 or Tag2 (undisclosed kit tag); purchased CisBio 63ADK000CPAPEG
The test is described as follows: PD-1/PD-L1 Homogenous Time-Resolved Fluorescence (HTRF) binding assay. Particulars: Biochemical PD1/PD-L1 inhibition. As to the method:
PD-L1 Enzyme Assay: Homogenous Time-Resolved Fluorescence (HTRF) Binding Assay
All binding studies were performed using PD-1/PD-L1 Binding Assay Kit from CisBio (Catalog #63ADK000CPAPEG), according to the manufacturer's protocol. The interaction between Tag1-PD-1 and […] was detected by anti-Tag1-Eu^3+ (HTRF donor) and anti-Tag2-XL665 (HTRF acceptor). When the donor and acceptor antibodies were brought to close proximity due to PD-1 and PD-L1 binding, excitation of the donor antibody triggered fluorescent resonance energy transfer (FRET) towards the acceptor antibody, which in turn emitted specifically at 665 nm. This specific signal is positively proportional to PD-1/PD-L1 interaction. The compounds blocking PD-1/PD-L1 interaction will cause a reduction in HTRF signal. The necessary reagents were mixed in the following order: 2 μl compounds (or diluents buffer), 4 μl PD-L1 protein, 4 μl PD-1 protein. After an incubation of 15 minutes, 5 μl of anti-Tag1-Eu^3+ and 5 μl of anti-Tag2-XL665 were added. The plate was sealed and incubated at RT for 1 h. The fluorescence emission was read at two different wavelengths (665 nm and 620 nm) on a BMG PheraStar® multiplate reader. Results were calculated from the 665 nm and 620 nm fluorescence signal and expressed in HTRF ratio=(665 nm/620 nm)×[…].
For orientation: TR-FRET usually uses a lanthanide donor and a delayed reading to cut background.
In turn, `COc1nc(OCc2cccc(-c3ccccc3)c2C)nc(OC)c1CN1CC2(CC2)C[C@H]1C(=O)O` [Compound 46, (S)-5-((4,6-dimethoxy-2-((2-methyl-[1,1′-biphenyl]-3-yl)methoxy)pyrimidin-5-yl)methyl)-5-azaspiro[2.4]heptane-6-carboxylic acid] gave an IC50 of under 100 nM.
For `COc1nc(OCc2cccc(-c3ccccc3)c2C)nc(OC)c1CN1CCCC2(CCNC2=O)C1` (stereo not shown) [Compound 47, 7-((4,6-dimethoxy-2-((2-methyl-[1,1′-biphenyl]-3-yl)methoxy)pyrimidin-5-yl)methyl)-2,7-diazaspiro[4.5]decan-1-one] the value was under 100 nM; for `COc1nc(OCc2cccc(-c3ccccc3)c2C)ncc1CN1CCN(C(C)=O)C[C@H]1C(=O)O` [Compound 49, (S)-4-acetyl-1-((4-methoxy-2-((2-methyl-[1,1′-biphenyl]-3-yl)methoxy)pyrimidin-5-yl)methyl)piperazine-2-carboxylic acid], over 500 nM; for `COc1nc(OCc2cccc(-c3ccccc3)c2C)ncc1CN1CCNC[C@H]1C(=O)O` [Compound 50, (S)-1-((4-methoxy-2-((2-methyl-[1,1′-biphenyl]-3-yl)methoxy)pyrimidin-5-yl)methyl)piperazine-2-carboxylic acid], over 500 nM.
Regarding `COc1nc(OCc2cccc(-c3ccccc3)c2C)ncc1CN1CC2(CC2)C[C@H]1C(=O)O` [Compound 51, (S)-5-((4-methoxy-2-((2-methyl-[1,1′-biphenyl]-3-yl)methoxy)pyrimidin-5-yl)methyl)-5-azaspiro[2.4]heptane-6-carboxylic acid], the IC50 was over 500 nM.
For `COc1nc(OCc2cccc(-c3ccccc3)c2C)ncc1CN1CCCC2(CCNC2=O)C1` (stereo not shown) [Compound 52, 7-((4-methoxy-2-((2-methyl-[1,1′-biphenyl]-3-yl)methoxy)pyrimidin-5-yl)methyl)-2,7-diazaspiro[4.5]decan-1-one], the IC50 was over 500 nM.
For `CC(=O)NCCNCc1cnc(OCc2cccc(-c3ccccc3)c2C)nc1OCc1ccc(F)c(C#N)c1` [Compound 53, N-(2-(((4-((3-cyano-4-fluorobenzyl)oxy)-2-((2-methyl-[1,1′-biphenyl]-3-yl)methoxy)pyrimidin-5-yl)methyl)amino)ethyl)acetamide] the value was over 500 nM.
The same measure for `Cc1c(COc2ncc(CN3C[C@H](O)C[C@H]3C(=O)O)c(OCc3ccc(F)c(C#N)c3)n2)cccc1-c1ccccc1` [Compound 54, (2S,4R)-1-((4-((3-cyano-4-fluorobenzyl)oxy)-2-((2-methyl-[1,1′-biphenyl]-3-yl)methoxy)pyrimidin-5-yl)methyl)-4-hydroxypyrrolidine-2-carboxylic acid]: 100 to 500 nM; for `COc1nc(OCc2cccc(-c3ccc4c(c3)OCCO4)c2C)nc(OC)c1CN1CCCC[C@H]1C(=O)O` [Compound 55, (S)-1-((2-((3-(2,3-dihydrobenzo[b][1,4]dioxin-6-yl)-2-methylbenzyl)oxy)-4,6-dimethoxypyrimidin-5-yl)methyl)piperidine-2-carboxylic acid]: under 100 nM; for `COc1nc(OCc2cccc(-c3ccc4c(c3)OCCO4)c2C)nc(OC)c1CNCCNC(C)=O` [Compound 56, N-(2-(((2-((3-(2,3-dihydrobenzo[b][1,4]dioxin-6-yl)-2-methylbenzyl)oxy)-4,6-dimethoxypyrimidin-5-yl)methyl)amino)ethyl)acetamide]: under 100 nM.
`COc1ccc(-c2cccc(COc3nc(OC)c(CNCCNC(C)=O)c(OC)n3)c2C)cc1OC` [Compound 57, N-(2-(((2-((3′,4′-dimethoxy-2-methyl-[1,1′-biphenyl]-3-yl)methoxy)-4,6-dimethoxypyrimidin-5-yl)methyl)amino)ethyl)acetamide]: the IC50 is over 500 nM.
The same measure for `COc1ccc(-c2cccc(COc3nc(OC)c(CN4C[C@H](O)C[C@H]4C(=O)O)c(OC)n3)c2C)cc1OC` [Compound 58]: over 500 nM; for `Cc1c(COc2ncc(CN3C[C@H](O)C[C@H]3C(=O)O)c(OCc3cncc(C#N)c3)n2)cccc1-c1ccccc1` [Compound 59, (2S,4R)-1-((4-((5-cyanopyridin-3-yl)methoxy)-2-((2-methyl-[1,1′-biphenyl]-3-yl)methoxy)pyrimidin-5-yl)methyl)-4-hydroxypyrrolidine-2-carboxylic acid]: over 500 nM.
The same measure for `COc1nc(OCc2cccc(-c3ccccc3)c2C)ncc1CN1CCCC[C@H]1CC(=O)O` [Compound 60, (S)-2-(1-((4-methoxy-2-((2-methyl-[1,1′-biphenyl]-3-yl)methoxy)pyrimidin-5-yl)methyl)piperidin-2-yl) acetic acid]: 100 to 500 nM; for `Cc1nc(OCc2cccc(-c3ccccc3)c2C)ncc1CN1CCCC[C@H]1C(=O)O` [Compound 64, (S)-1-((4-methyl-2-((2-methyl-[1,1′-biphenyl]-3-yl)methoxy)pyrimidin-5-yl)methyl)piperidine-2-carboxylic acid]: under 100 nM.
`CC(=O)NCCNCc1cnc(OCc2cccc(-c3ccccc3)c2C)nc1C` [Compound 65, N-(2-(((4-methyl-2-((2-methyl-[1,1′-biphenyl]-3-yl)methoxy)pyrimidin-5-yl)methyl)amino)ethyl)acetamide]: the IC50 lay in the range of 100 to 500 nM.
